# Active and inactive are the calls of the source.
# Experiments:
# [1] = microbe, parasite or virus in culture; type: functional; conditions: Mycobacterium tuberculosis
# [2] = molecular target: Luciferin 4-monooxygenase (Photinus pyralis, UniProt P08659); test: inhibition of purified Photinus pyralis luciferase – biochemical, luminescence, dose response (AID 1891)
# [3] = Luminescence Cell-Based Dose Confirmation HTS to Identify Inhibitors of Platelet Dense Granule Release. [Related pubchem assays: 1663 (Primary HTS), 1678 (Summary of Project)]; type: functional
# [4] = molecular target: T1, High affinity choline transporter 1 (Homo sapiens, UniProt Q9GZV3); test: human choline transporter blockers, potency – cell-based, 5-point CRC, membrane potential dye, dose response (AID 504840); type: functional
# T1 sequence (Q9GZV3 whole entry): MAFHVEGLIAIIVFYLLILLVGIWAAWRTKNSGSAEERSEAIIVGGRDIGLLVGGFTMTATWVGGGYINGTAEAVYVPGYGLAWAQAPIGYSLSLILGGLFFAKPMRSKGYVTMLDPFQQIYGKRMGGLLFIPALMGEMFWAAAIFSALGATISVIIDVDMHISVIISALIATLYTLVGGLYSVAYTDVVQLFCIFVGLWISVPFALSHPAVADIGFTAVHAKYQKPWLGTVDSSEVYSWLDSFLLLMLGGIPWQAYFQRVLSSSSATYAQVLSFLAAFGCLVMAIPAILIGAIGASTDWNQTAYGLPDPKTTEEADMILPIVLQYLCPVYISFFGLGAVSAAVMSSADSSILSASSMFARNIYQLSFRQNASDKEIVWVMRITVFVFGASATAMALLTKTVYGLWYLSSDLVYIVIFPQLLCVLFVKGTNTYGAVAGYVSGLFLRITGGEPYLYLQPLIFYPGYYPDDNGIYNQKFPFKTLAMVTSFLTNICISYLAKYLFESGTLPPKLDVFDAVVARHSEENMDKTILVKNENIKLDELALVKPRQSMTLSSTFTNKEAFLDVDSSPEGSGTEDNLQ
# Cytochrome P450 1A2 = molecular target: T2, Cytochrome P450 1A2 (Homo sapiens, UniProt P05177);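 further: PubChem cytochrome P450 panel assay, CYP1A2 panel member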
# T2 sequence (P05177 whole entry): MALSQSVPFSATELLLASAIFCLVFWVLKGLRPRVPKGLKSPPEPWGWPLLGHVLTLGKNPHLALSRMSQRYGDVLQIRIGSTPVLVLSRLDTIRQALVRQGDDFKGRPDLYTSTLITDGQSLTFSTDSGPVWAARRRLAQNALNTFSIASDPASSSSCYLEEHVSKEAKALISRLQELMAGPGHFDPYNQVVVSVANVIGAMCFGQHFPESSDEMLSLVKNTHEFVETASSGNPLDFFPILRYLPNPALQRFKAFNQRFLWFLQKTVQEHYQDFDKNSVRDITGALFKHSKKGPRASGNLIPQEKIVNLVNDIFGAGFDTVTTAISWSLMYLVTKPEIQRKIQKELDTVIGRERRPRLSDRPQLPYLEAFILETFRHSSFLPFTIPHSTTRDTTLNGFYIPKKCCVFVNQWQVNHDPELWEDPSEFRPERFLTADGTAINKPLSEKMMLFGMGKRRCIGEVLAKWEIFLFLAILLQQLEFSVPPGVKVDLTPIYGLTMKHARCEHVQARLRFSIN
# Cytochrome P450 2C9 = Cytochrome P450 2C9 (Homo sapiens, UniProt P11712)
# Sequence of Cytochrome P450 2C9 (P11712 whole entry): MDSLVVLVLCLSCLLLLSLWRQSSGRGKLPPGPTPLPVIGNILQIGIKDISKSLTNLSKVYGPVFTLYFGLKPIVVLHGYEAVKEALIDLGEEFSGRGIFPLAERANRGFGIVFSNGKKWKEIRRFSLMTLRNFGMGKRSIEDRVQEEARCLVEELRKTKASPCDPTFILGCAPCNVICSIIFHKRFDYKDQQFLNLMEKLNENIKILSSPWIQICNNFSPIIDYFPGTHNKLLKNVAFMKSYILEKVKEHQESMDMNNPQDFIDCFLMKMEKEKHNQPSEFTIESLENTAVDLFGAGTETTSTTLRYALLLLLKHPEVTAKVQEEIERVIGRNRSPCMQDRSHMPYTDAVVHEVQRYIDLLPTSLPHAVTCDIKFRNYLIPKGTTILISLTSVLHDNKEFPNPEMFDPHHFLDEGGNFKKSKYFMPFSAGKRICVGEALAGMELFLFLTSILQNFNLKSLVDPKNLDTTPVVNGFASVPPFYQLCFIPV
# [5] = luciferase reporter signal suppression in cells – H4 neuroglioma cells, luminescence, dose response (AID 1990); type: functional, cell-based
# [6] = Luminescence Cell-Based Dose Response HTS to Identify Inhibitors of 5'UTR Stem-Loop Driven Prion Protein mRNA Translation in H4 Neuroglioblastoma Cells. [Related pubchem assays: 1827 (Project Summary), 1813 (Primary HTS)]; type: functional
# [7] = alpha-synuclein stem-loop luciferase translation blockers – H4 neuroglioma cells, luminescence, confirmation (AID 1988); type: functional, cell-based
# [8] = NIH-3T3 fibroblast cytotoxicity, dose response, cytotoxicity control, cell-based, fluorescence, Alamar Blue, secondary assay (AID 2327); type: functional;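 further: NIH-3T3 mouse fibroblasts cultured with fluconazole at 8 µg/mL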
# [9] = fluconazole-exposed Candida albicans growth modulators – fluorescence, retest, confirmation (AID 2467); type: functional, cell-based
# [10] = system: Streptococcus sp. 'group A'; test: Streptococcus pyogenes SK(-)GAS viability under kanamycin – luminescence, BacTiterGlo, confirmation, counter-screen for streptokinase expression inhibitor project, dose response (AID 1900); type: functional, organism-based
# Streptococcus = test: GAS UMAA2166 growth inhibition – luminescence, BacTiterGlo, counter-screen for streptokinase expression inhibitor project, dose response (AID 1915); type: functional, organism-based;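 further: potency for reduction of bacterial viability or growth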
# Cytochrome P450 2D6 = Cytochrome P450 2D6 (Homo sapiens, UniProt P10635);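 further: CYP2D6 member of a cytochrome P450 panel assay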
# Sequence of Cytochrome P450 2D6 (P10635 whole entry): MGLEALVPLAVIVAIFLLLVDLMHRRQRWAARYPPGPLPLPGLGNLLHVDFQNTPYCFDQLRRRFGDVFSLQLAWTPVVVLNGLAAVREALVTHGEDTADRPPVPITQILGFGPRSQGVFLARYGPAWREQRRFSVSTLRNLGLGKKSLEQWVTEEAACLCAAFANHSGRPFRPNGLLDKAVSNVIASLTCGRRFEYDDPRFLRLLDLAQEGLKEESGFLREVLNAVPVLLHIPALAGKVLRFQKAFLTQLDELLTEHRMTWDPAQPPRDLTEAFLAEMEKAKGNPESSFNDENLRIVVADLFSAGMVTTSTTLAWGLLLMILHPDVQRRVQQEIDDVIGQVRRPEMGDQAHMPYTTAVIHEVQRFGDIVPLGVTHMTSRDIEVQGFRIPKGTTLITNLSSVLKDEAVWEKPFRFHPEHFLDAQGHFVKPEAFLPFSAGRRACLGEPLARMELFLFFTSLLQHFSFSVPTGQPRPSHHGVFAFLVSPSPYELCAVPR
# Cytochrome P450 3A4 = Cytochrome P450 3A4 (Homo sapiens, UniProt P08684);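 further: CYP3A4 tested as one member of a cytochrome P450 panel screen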
# Sequence of Cytochrome P450 3A4 (P08684 whole entry): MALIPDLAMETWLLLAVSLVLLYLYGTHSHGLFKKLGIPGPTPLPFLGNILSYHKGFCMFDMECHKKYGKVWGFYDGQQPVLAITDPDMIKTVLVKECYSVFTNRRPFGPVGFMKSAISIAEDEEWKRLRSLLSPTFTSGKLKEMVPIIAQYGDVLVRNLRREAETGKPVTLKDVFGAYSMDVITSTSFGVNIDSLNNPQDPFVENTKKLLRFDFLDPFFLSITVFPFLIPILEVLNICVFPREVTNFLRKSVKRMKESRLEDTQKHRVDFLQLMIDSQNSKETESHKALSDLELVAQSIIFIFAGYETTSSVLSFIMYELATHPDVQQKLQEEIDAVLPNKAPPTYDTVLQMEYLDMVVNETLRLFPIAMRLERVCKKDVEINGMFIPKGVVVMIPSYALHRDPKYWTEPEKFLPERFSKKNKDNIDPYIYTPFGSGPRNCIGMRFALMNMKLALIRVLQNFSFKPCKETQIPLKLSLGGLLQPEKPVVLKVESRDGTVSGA
# [11] = molecular target: T3, Ubiquitin-conjugating enzyme E2 N (Homo sapiens, UniProt P61088); type: functional;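 further: Dose-response confirmation in a TR-FRET assay detecting UBC13-driven polyubiquitin chain formation, inhibition measured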
# T3 sequence (P61088 whole entry): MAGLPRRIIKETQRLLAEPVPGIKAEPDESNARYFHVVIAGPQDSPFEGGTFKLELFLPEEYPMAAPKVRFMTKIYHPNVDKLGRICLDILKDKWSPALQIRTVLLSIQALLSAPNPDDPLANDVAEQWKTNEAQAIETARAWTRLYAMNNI
# Cytochrome P450 2C19 = Cytochrome P450 2C19 (Homo sapiens, UniProt P33261); test: Cytochrome panel assay with activity outcomes. Panel member name: p450-cyp2c19 Compounds with AC50 equal or less than 10 uM are considered active; type: functional; conditions: read-out: AC50
# Sequence of Cytochrome P450 2C19 (P33261 whole entry): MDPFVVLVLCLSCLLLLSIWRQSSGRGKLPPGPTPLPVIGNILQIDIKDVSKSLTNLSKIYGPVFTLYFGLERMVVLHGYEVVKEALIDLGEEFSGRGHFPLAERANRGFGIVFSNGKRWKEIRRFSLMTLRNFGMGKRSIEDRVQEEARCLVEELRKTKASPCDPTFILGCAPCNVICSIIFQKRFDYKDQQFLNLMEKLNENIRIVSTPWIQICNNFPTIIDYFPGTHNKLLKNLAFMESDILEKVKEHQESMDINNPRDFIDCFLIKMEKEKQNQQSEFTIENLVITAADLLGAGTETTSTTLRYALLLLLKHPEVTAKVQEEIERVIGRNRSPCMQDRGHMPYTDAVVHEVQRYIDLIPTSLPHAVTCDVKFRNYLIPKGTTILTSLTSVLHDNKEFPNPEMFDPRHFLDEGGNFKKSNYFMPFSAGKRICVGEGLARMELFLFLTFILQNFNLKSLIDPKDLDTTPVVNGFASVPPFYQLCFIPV
# [12] = Trypanosoma cruzi growth suppression in host cells – NIH3T3 host cells, beta-gal luminescence, confirmation (AID 2044); type: functional, cell-based;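 further: intracellular parasites grown in NIH/3T3 mouse fibroblasts as host cells; luminescent beta-galactosidase reporter signal from transgenic T. cruzi replicating inside host cells; inhibitors lower the luminescence signal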
# [13] = NIH3T3 cell viability loss – ATP luminescence, mouse fibroblasts, counter-screen, dose response (AID 2010); type: functional, cell-based;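 further: cells exposed to compound for about 90 hours before reading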
# Sequence of Luciferin 4-monooxygenase (P08659 whole entry): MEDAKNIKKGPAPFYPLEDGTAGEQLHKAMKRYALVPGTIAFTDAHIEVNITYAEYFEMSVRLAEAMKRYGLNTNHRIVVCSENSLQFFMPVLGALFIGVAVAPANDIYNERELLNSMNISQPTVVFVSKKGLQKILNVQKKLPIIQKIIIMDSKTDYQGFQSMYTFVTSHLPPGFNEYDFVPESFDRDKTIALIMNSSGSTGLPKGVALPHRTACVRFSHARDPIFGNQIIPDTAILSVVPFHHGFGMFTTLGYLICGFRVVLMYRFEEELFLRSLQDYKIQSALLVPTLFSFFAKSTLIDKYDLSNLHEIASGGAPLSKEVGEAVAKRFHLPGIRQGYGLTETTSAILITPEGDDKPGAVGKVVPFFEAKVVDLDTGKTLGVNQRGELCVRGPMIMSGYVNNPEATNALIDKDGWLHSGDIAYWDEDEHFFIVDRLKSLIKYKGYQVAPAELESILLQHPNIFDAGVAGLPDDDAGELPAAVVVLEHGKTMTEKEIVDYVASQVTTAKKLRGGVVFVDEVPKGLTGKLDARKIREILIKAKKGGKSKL
smiles,measurement,setting,value
COc1cc2c(C(=O)N3CCN(c4cccc(Cl)c4)CC3)cn(CC(C)C)c(=O)c2cc1OC,CC50,[1],> 40 µM (active)
CCN(C[C@H]1N[C@@](Cc2ccccc2)(C(=O)OC)[C@H]2C(=O)N(Cc3ccccc3)C(=O)[C@@H]12)C(=O)Nc1ccc(C(F)(F)F)cc1,CC50,[1],39.5 µM (active)
COc1ccccc1/C=C/CN1CCCC(CO)(Cc2cccc(Cl)c2)C1 (stereo unspecified),EC50,[2],> 112 µM (not active)
same,EC50,[3],> 112 µM (not active)
CN(C)C=O.CNC(=O)CSc1nc2nc(C)cc(C)n2n1,EC50,[2],> 112 µM (not active)
same,EC50,[3],> 112 µM (not active)
CCOC(=O)c1ccccc1N/C=C/C(=O)c1cccs1,IC50,[4],13.2 µM (active)
CS(=O)(=O)N1CCC[C@@]2(CCN(c3ccccc3)C2)C1,AC50,Cytochrome P450 1A2,31.6 µM (inconclusive)
same,AC50,Cytochrome P450 2C9,25.1 µM (inconclusive)
Clc1cccc(-c2cc3nc4c(c(NCc5ccco5)n3n2)CCCC4)c1,CC50,[1],23.7 µM (active)
CCOc1ccccc1Nc1cc2n(c(=O)n1)CCc1cc(OC)c(OC)cc1-2,EC50,[5],47.8 µM (active)
same,EC50,[6],30.7 µM (active)
same,EC50,[7],9.81 µM (active)
same,EC50,[2],> 112 µM (not active)
same,EC50,[3],1.23 µM (active)
CC1(C)CC(=O)C2=C(C1)N(c1ccccc1)C(=O)CC2c1ccsc1 (stereo unspecified),EC50,[2],> 112 µM (not active)
same,EC50,[3],> 112 µM (not active)
CCOc1cc(/C=N/NC(=O)CN2CCCCC2)ccc1OCc1cccc(Cl)c1,IC50,[4],14.5 µM (active)
CCn1cc(C(=O)N2CCCCC2)c(=O)c2cc(S(=O)(=O)N3CCC(C)CC3)ccc21,IC50,[4],16.2 µM (active)
CC(C)CCNCC(=O)NC(c1ccccc1)c1ccccc1,EC50,[8],> 160 µM (inactive)
same,EC50,[9],> 38 µM (not active)
C=C(C)COc1ccc(-c2[nH]nc(C)c2-c2ccccc2)c(O)c1,EC50,[8],93.6 µM (active)
same,EC50,[10],9.45 µM (active)
same,EC50,[9],2.67 µM (active)
same,EC50,Streptococcus,16.4 µM (active)
O=C(Nc1cccnc1)c1cc(-c2ccc(Cl)c(Cl)c2)on1,EC50,[2],> 112 µM (not active)
same,EC50,[3],> 112 µM (not active)
CN1C[C@H](C(=O)N[C@@]2(C)O[C@@]3(O)[C@H]4CCCN4C(=O)[C@@H](Cc4ccccc4)N3C2=O)C=C2c3cccc4[nH]cc(c34)C[C@@H]21,AC50,Cytochrome P450 1A2,3.16 µM (inconclusive)
COCCn1c(=O)c(-c2cn(C)c3ccccc23)nc2cnc(N3CCNCC3)nc21,AC50,Cytochrome P450 1A2,12.6 µM (inconclusive)
CCc1ccccc1NC(=O)C1C(c2ccccc2)C1(Cl)Cl (stereo unspecified),AC50,Cytochrome P450 2D6,11.2 µM (inconclusive)
same,AC50,Cytochrome P450 1A2,17.8 µM (inconclusive)
same,AC50,Cytochrome P450 2C9,20 µM (inconclusive)
O=C(CC(CC(=O)c1ccc(Cl)cc1)c1ccccc1C(=O)O)c1ccc(Cl)cc1,IC50,[4],13.8 µM (active)
C[N+](C)(CCCOc1ccccc1)c1ccccc1.O=C([O-])c1cc2ccccc2cc1O,AC50,Cytochrome P450 1A2,12.6 µM (inconclusive)
O=C(NCC1CCCO1)c1cc2n(n1)C(C(F)(F)F)CC(c1ccc(Br)cc1)N2 (stereo unspecified),EC50,[8],> 160 µM (inactive)
same,EC50,[9],> 38 µM (not active)
NC(=O)C1(N2CCCCC2)CCN(C(=O)Nc2ccccc2C(F)(F)F)CC1,EC50,[2],> 112 µM (not active)
same,EC50,[3],> 112 µM (not active)
C/C1=N/NC(=S)NCCCN2CCN(CCCNC(=S)N/N=C(/C)C=NNC(=S)NCCCN3CCN(CCCNC(=S)NN=C1)CC3)CC2,AC50,Cytochrome P450 1A2,3.16 µM (inconclusive)
COc1ccc(C(=O)Nc2ccc(Cl)cc2C(=O)NCCN2CCOCC2)cc1,AC50,Cytochrome P450 1A2,22.4 µM (inconclusive)
Nc1ccn([C@@H]2O[C@H](CO)[C@@H](O)C2O)c(=O)n1 (stereo partly specified) [CYTARABINE],CC50,[1],1.8 µM (active)
Cc1ccc(-c2csc3ncnc(Nc4ccc(N5CCOCC5)cc4)c23)cc1,CC50,[1],> 40 µM (active)
CCOc1cc(N2CCOCC2)c(OCC)cc1NC(=O)c1nc2nc(C)cc(C)n2n1,EC50,[8],> 160 µM (inactive)
same,EC50,[9],> 38 µM (not active)
Nc1ncnc2c1ncn2C1CCCC1,AC50,Cytochrome P450 1A2,20 µM (inconclusive)
same,AC50,Cytochrome P450 3A4,0.0398 µM (inconclusive)
C#CCOCCOCCOCCNc1nc(N2CCOCC2)nc(N2CCN(C(=O)CCCCCCCCCCNC(=O)[C@H]([C@@H](C)CC)n3cc(CCCCN=C(N)N)nn3)CC2)n1,IC50,[11],> 20 µM (inactive)
OCc1ccccc1OCCOc1ccc(Cl)c2cccnc12,IC50,[4],11.5 µM (active)
COc1ccc(Nc2cc3n(c(=O)n2)CCc2cc(OC)c(OC)cc2-3)cc1,EC50,[2],> 112 µM (not active)
same,EC50,[3],4.68 µM (active)
COc1ccc(-c2cc(C(F)(F)F)nc(SCC(=O)NCCN3CCOCC3)n2)cc1OC,EC50,[2],> 112 µM (not active)
same,EC50,[3],47.9 µM (active)
c1ccc2c(C[C@@H]3CNCCN3CC3CCCCC3)cccc2c1,IC50,[11],> 20 µM (inactive)
CCn1cc([N+](=O)[O-])c(C(=O)N2N=C(c3ccc4ccccc4c3)CC2c2ccccc2O)n1 (stereo unspecified),CC50,[1],33.1 µM (active)
CC[N+](CC)(CCCNC1=CC(=O)C(NCCC[N+](CC)(CC)Cc2ccccc2)=CC1=O)Cc1ccccc1 [BENZOQUINONIUM],AC50,Cytochrome P450 1A2,31.6 µM (inconclusive)
O=C(NC1CCCCCCC1)c1ccc(S(=O)(=O)N2CCCC2)cc1,IC50,[4],14.5 µM (active)
CCCc1cc(=O)oc2cc(OCC(=O)N3CCc4ccccc43)ccc12,EC50,[2],> 112 µM (not active)
same,EC50,[3],> 112 µM (not active)
same,AC50,Cytochrome P450 2C19,1 µM (inconclusive)
CCOCCN1CCN(c2c(CC)c(C)nc3cc(-c4cc(OC)cc(OC)c4)nn23)CC1,CC50,[1],> 40 µM (active)
O=C(NCc1ccccc1)C(c1cccnc1)N(C(=O)c1ccccn1)c1ccccc1F (stereo unspecified),EC50,[2],> 112 µM (not active)
same,EC50,[3],> 112 µM (not active)
Cc1ccc(C(=O)C[n+]2cccc3ccccc32)cc1,EC50,[12],32.4 µM (active)
same,EC50,[13],> 60 µM (not active)
same,IC50,[4],13.8 µM (active)
COc1ccc(C(=O)N2CC3(CC(c4cccc([N+](=O)[O-])c4)=NO3)C[C@H]2C(=O)NCC(N)=O)cc1 (stereo partly specified),AC50,Cytochrome P450 1A2,28.2 µM (inconclusive)
CCCC(/C=C/c1ccc(OC(C)=O)cc1)=C1/c2ccccc2C(=O)N1c1ccccc1,CC50,[1],12.8 µM (active)
O=C(Nc1nc2ccc(S(=O)(=O)N3CCCCC3)cc2s1)c1ccncc1,EC50,[8],130 µM (active)
same,EC50,[9],1.95 µM (active)
O=C(O)C=Cc1ccc(Cn2ccnc2)cc1,AC50,Cytochrome P450 1A2,31.6 µM (inconclusive)
COc1cc2sc(-c3ccc(S(C)(=O)=O)cc3)c(C(=O)NCCCCO)c2cc1OC,IC50,[11],> 20 µM (inactive)
COc1ccc(Nc2cc3n(c(=O)n2)CCc2cc(OC)c(OC)cc2-3)c(C)c1,EC50,[5],17.3 µM (active)
same,EC50,[6],41.3 µM (active)
same,EC50,[7],35.6 µM (active)
same,EC50,[2],> 112 µM (not active)
same,EC50,[3],0.987 µM (active)

# — ChEMBL document CHEMBL1201862, “PubChem BioAssay data set” (2004)
